Data: PMC4413647, “Simultaneous targeting of androgen receptor (AR) and MAPK-interacting kinases (MNKs) by novel retinamides inhibits growth of human prostate cancer cell lines” (Oncotarget, 2014)
Like-named read-outs stand apart in the source and are kept apart here.

What was measured:
22Rv1 cells = test: MTT cell proliferation assay, 7 d, 22Rv1; format: cell-based; details: Homo sapiens, 22Rv1, 168 h, 7 d treatment
Source text: (§1) Androgen-dependent (LNCaP), androgen-independent (PC-3) and castration resistant (C4-2B and 22Rv1) human prostate carcinoma cells were procured from American Type Culture Collection, Manassas, VA, USA and maintained in RPMI 1640 media (Gibco-Life Technologies, Grand Island, NY, USA) supplemented with 10% fetal bovine serum and 1% penicillin/streptomycin. […] Immortalized untransformed prostate epithelial cells, PWR1E from American Type Culture Collection were maintained in serum-free Keratinocyte media (Gibco) supplemented with epidermal growth factor and bovine pituitary extract. All cell lines were maintained in a 37 °C/5% CO2 humidified atmosphere.
(§2) Cell proliferation assay was performed as described previously. For cell growth experiment, cells were treated with the NRs for 7 days. MTT assay was performed at the end of the experiment. Calculations of combination indices were done using the Calcusyn program (Biosoft, Cambridge, United Kingdom). For colony formation assay, cells were plated 1000 per well in complete media and allowed to adhere for 24 h. The next day cells were treated with indicated compounds (5 μM). After 24 h compound containing media were removed, and cells were allowed to form colonies in complete media. Approximately 2 weeks later the colonies were fixed, stained with 0.5% crystal violet (sigma) for 30 min and counted manually. Results represent the mean ± standard deviation of three independent experiments.

LNCaP cells [1] = test: MTT cell proliferation assay, 7 d, LNCaP; format: cell-based, human; details: 7 d treatment
Source text: as §1, §2

PC-3 cells [2] = test: Wound healing migration assay; format: cell-based, human; details: 5 μM, 24 h
Procedure: Figure 5 Anti-migratory and anti-invasive potential of NRs (A) Effect of NRs treatment (5 μmol/L) on PC-3 cell migration was assessed by wound healing assay after 24 h of wound formation. Representative photomicrographs of initial and final wounds are shown at 100x magnification. (B) Effect of NRs on PC-3 cell invasion was evaluated by transwell migration assay. PC-3 cells were seeded on matrigel coated boyden chamber and treated with NRs (5 μmol/L, 24 h). Photographs represent the extent of cell invasion in each of the treated cells. (C) Western blot analysis of the effect of NRs on the expression of cadherins in PC-3 cells. Cells were treated with indicated compound 20 μmol/L for 24 h. […] For wound healing assay highly metastatic PC-3 cells were plated in a 24 well plate at a seeding density of 5 × 10^5 cells/ well and allowed to form a confluent monolayer for 24 h. Cells were made dormant by pretreating with 0.5 μmol/L mitomycin C for 2 h to ensure that wounds are filled due to cell migration and not by cell proliferation. Subsequently, the monolayer was scratched with a pipette tip, washed with media to remove floating cells, and photographed (time 0 h). Cells were then treated with indicated compounds (5 μM) and the experiment was terminated as soon as wound was completely filled in vehicle treated controls. Cells were then photographed again using Nikon TE2000 microscope at three randomly selected sites per well [43].

LNCaP cells [3] = test: MTT cell viability of LNCaP cells with AR/MNK1 siRNA and VNLG-152; format: cell-based, human; details: untransfected cells, 5 μM, 72 h
Source text: To confirm whether the observed anti-cancer effects of VNLG-152 on PCa cells was primarily due to its inhibitory effects on AR and MNK, we investigated the impact of AR and/or MNK siRNA on the survival of LNCaP cells by MTT assay. […] Co-transfection of LNCaP cells with both AR and MNK1 siRNA (compare lanes 1 and 4) further augmented loss of viability in LNCaP cells.
Figure 6 Effect of siAR, siMNK1 on LNCaP cell viability, and VNLG-152 on key and downstream proteins in LNCaP cells (A) Western blot analysis of the expression of fAR, MNK1 and peIF4E in LNCaP cells transfected with 100 nM of siAR, siMNK1 and combinations for 18 h. (B) Effect of VNLG-152 (5 μmol) on cell proliferation in LNCaP cells transfected with siAR, siMNK1 and combinations as determined by MTT assay. The results represent the mean ± SEM of three independent experiments and are represented as a bar graph after normalizing to control cells. *, P< 0.05; ♣, P<0.01 compared with vehicle treated control. (C) Dose-dependent effect of VNLG-152 on the expression of AR, MNKs, peIF4E and downstream target proteins. Total cell lysate from LNCaP cells treated with VNLG-152 (0 - 20 μmol/L) for 24 h were separated by SDS-PAGE and probed with corresponding antibodies. Vehicle treated cells were included as control and all blots were reprobed for β-actin to ensure equal protein loading. […]

PC-3 cells [4] = test: MTT cell proliferation assay, 7 d, PC-3; format: cell-based; details: Homo sapiens, PC-3, 168 h, 7 d treatment
Source text: as §1, §2

PC-3 cells [5] = test: Boyden chamber matrigel invasion assay; format: cell-based, human; details: PC-3, 5 μM, 24 h
Procedure: Figure 5 Anti-migratory and anti-invasive potential of NRs (A) Effect of NRs treatment (5 μmol/L) on PC-3 cell migration was assessed by wound healing assay after 24 h of wound formation. Representative photomicrographs of initial and final wounds are shown at 100x magnification. (B) Effect of NRs on PC-3 cell invasion was evaluated by transwell migration assay. PC-3 cells were seeded on matrigel coated boyden chamber and treated with NRs (5 μmol/L, 24 h). Photographs represent the extent of cell invasion in each of the treated cells. (C) Western blot analysis of the effect of NRs on the expression of cadherins in PC-3 cells. Cells were treated with indicated compound 20 μmol/L for 24 h.
The invasion assay in PC-3 cells was performed using Matrigel (BD Biosciences, Bedford, MA, USA)-coated transwell cell culture chambers (8 μm pore size, EMD Millipore, Temecula, CA, USA) as described previously (43). Briefly, PC-3 cells (5 × 10^4 cells/well) were cultured in the upper chamber of the transwell insert for 24 h in serum-free RPMI-1640 medium. The cells were then treated with 5 μM of indicated compounds for 24 h. RPMI-1640 medium containing 10% FBS was placed in the lower chamber. At the end of incubation, the top surface of the non-migrated cells were scraped gently with cotton swabs and the cells on the lower surface of the membrane (migrated cells) were fixed for 15 min with cold methanol and stained with crystal violet. Cells that had migrated to the bottom of the membrane were visualized and counted using an inverted microscope. For each replicate (n = 3), cells in three randomly selected fields were counted and averaged.

Structure (SMILES): CC1=C(/C=C/C(C)=C/C=C/C(C)=C/C(=O)Nc2ccc(F)cc2)C(C)(C)CCC1n1ccnc1 (racemic) [VNLG-152]
- GI50 (22Rv1 cells): 3230 nM
- GI50 (LNCaP cells [1]; read-out: GI50 LNCaP): 2450 nM
- GI50 (LNCaP cells [1]; Homo sapiens, LNCaP, 168 h, read-out: GI50 LNCaP): 2500 nM
- GI50 (LNCaP cells [1]; Homo sapiens, LNCaP, 168 h, DHT induced, read-out: GI50 LNCaP, DHT induced): 1860 nM
- PC-3 cell migration to the denuded zone (PC-3 cells [2]): potentially suppressed
- LNCaP cell viability (LNCaP cells [3]): robust reduction
- GI50 (PC-3 cells [4]): 5620 nM
- percentage of cell invasion compared to control (PC-3 cells [5]): 13
